# Results as given in article PMC11555526, “Development of 2-Aminoadenine-Based Proteolysis-Targeting Chimeras (PROTACs) as Novel Potent Degraders of Monopolar Spindle 1 and Aurora Kinases” (ACS Pharmacology & Translational Science, 2024).
# Columns and labels:
# [1] = target: T1, AURKB (MV4-11^AURKB-HiBiT cells) (Homo sapiens, UniProt Q96GD4); assay: HiBiT assay, AURKB degradation; type: cell-based; parameters: key to Dmax (maximal degradation) AURKB: compounds with degradation less than 15% reported as “inactive”; conditions: 6 h treatment
# T1 construct: expressed in transfected cells; host or cells: MV4-11, lentiviral transduction (pRRL-PGK vector)
# T1 sequence (Q96GD4 1-345 isoform Q96GD4-5): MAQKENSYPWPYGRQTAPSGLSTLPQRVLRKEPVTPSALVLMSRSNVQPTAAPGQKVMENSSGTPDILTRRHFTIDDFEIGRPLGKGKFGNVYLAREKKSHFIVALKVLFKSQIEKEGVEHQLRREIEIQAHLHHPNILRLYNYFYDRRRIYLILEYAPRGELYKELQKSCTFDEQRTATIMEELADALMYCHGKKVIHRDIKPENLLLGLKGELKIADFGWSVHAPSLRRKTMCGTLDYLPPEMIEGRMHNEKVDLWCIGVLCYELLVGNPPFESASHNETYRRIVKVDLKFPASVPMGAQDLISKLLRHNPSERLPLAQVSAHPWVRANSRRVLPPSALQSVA
# Procedure: (§1) The effects of the synthesized compounds on AURKA, AURKB, and TTK mitotic kinases were then assessed in cellular systems. For this, HiBiT cell lines were generated for all three mitotic kinases. A small 11 amino acid peptide fragment of luciferase (HiBiT) was fused to the coding sequence of the proteins and stably transduced in the MV4-11 cell line (MV4-11^AURKA-HiBiT, MV4-11^AURKB-HiBiT, and MV4-11^HiBiT-TTK).
# (§2) The stable cell lines MV4-11^AURKA-HiBiT, MV4-11^AURKB-HiBiT, and MV4-11^HiBiT-TTK cells were generated by lentiviral infection. Lentivirus was produced using the respective HiBiT vector, plasmids psPAX2, and pMD2.G in HEK293 cells. The virus supernatant was filtered and MV4-11 cells were doubly infected with the supernatant. The cells were selected after 48 h of infection until the control cells were dead to get the stable cell line.
# (§3) The cells stably expressing HiBiT-tagged protein were seeded into 96-well plates and treated with serial dilutions of compounds for the indicated time points. At the end point, the assay was performed using the Nano-Glo HiBiT Lytic Detection System (Promega) according to the manufacturer’s instruction. Luminescence was measured on a GloMax 96 Microplate Luminometer (Promega) or a Tecan Spark Multiplate reader (Tecan). DC50 was calculated using concentrations showing sigmoidal behavior with the dose–response (four parameters) equation in Prism (GraphPad).
# [2] = system: MV4-11 cells (naive); assay: alamarBlue cell viability assay; type: cell-based, human; conditions: 72 h treatment, MV4-11 cells (naive)
# Procedure: Finally, to study the effect of the compounds on cancer cell survival, MV4-11 cells were treated with various concentrations of the chimeras and the cell viability was assessed after 72 h. […] As opposed to the parent inhibitor MPS1-IN-3, its derivatives except 40 were not cytotoxic (Figure S7B, Table 5). […] In addition, most of the SF1-based derivatives affected the viability of MV4-11 cells in nanomolar concentrations (Table 5).
# For the alamarBlue cell viability assay, cells were seeded in 96-well plates and treated with indicated concentrations of the compounds or vehicle. A few hours before the experimental end point (72 h, unless otherwise stated), the cells were incubated with the alamarBlue reagent. Finally, fluorescence (excitation: 550 nm and emission: 600 nm) or absorbance (570 nm with reference at 600 nm) was measured on a Tecan Spark Multiplate reader (Tecan).
# [3] = target: T2, TTK (MV4-11^HiBiT-TTK cells) (Homo sapiens, UniProt P33981); assay: HiBiT assay, TTK degradation; type: cell-based; parameters: key to Dmax (maximal degradation) TTK: compounds with degradation less than 15% reported as “inactive”; conditions: 6 h treatment, MV4-11^HiBiT-TTK cells
# T2 construct: expressed in transfected cells; host or cells: MV4-11, lentiviral transduction (pRRL-PGK-HiBiT entry vector)
# T2 sequence (P33981 1-857): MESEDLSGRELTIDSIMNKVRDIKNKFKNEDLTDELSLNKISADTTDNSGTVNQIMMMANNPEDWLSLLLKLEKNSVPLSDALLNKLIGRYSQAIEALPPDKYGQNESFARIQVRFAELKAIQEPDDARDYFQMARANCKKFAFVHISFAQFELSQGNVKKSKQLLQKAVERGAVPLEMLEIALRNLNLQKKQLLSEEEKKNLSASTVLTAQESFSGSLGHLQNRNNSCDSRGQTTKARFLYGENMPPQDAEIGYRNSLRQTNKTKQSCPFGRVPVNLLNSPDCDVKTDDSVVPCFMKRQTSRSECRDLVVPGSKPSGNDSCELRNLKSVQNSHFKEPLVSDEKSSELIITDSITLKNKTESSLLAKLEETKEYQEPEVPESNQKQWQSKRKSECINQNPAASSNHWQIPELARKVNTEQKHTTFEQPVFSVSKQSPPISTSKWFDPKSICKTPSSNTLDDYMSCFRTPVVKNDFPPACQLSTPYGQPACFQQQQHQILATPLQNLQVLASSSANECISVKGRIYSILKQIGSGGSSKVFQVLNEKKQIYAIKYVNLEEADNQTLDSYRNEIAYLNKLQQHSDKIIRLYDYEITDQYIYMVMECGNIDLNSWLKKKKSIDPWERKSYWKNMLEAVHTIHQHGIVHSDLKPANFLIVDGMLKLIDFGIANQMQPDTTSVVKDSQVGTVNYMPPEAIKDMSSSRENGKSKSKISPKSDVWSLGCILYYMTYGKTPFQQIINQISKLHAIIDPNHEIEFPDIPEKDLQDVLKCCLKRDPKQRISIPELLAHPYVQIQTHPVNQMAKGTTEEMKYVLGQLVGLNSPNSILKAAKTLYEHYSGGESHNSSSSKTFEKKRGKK
# Procedure: as §1, §2, §3
# [4] = target: T3, AURKA (MV4-11^AURKA-HiBiT cells) (Homo sapiens, UniProt O14965); assay: HiBiT assay, AURKA degradation; type: cell-based; parameters: key to Dmax (maximal degradation) AURKA: compounds with degradation less than 15% reported as “inactive”; conditions: 6 h treatment, MV4-11^AURKA-HiBiT cells
# T3 construct: expressed in transfected cells; host or cells: MV4-11, lentiviral transduction
# T3 sequence (O14965 1-403): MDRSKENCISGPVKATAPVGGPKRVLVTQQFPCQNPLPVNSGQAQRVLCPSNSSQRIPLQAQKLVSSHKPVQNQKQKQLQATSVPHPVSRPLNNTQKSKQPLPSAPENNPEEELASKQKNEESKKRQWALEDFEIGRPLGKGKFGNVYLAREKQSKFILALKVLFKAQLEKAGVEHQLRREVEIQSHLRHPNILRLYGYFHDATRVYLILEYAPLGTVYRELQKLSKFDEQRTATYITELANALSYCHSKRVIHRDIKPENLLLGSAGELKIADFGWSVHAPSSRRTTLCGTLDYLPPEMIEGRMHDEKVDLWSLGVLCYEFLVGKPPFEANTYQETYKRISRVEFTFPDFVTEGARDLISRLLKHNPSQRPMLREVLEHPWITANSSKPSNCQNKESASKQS
# Procedure: as §1, §2, §3
SMILES,Dmax (maximal degradation) AURKB [1],EC50 ([2]; read-out: EC50 (concentration that decreases cell viability by 50%)),Dmax (maximal degradation) TTK [3],DC50 ([3]; read-out: DC50 (half-maximal degradation concentration) TTK),Dmax (maximal degradation) AURKA [4],DC50 ([4]; read-out: DC50 (half-maximal degradation concentration) AURKA),DC50 (half-maximal degradation concentration) AURKB [1],EC50 (concentration that decreases cell viability by 50%) [2],DC50 (half-maximal degradation concentration) TTK [3],DC50 (half-maximal degradation concentration) AURKA [4]
CC(C)S(=O)(=O)c1ccccc1Nc1nc(Nc2ccc(N3CCN(C(=O)CCC(=O)NCCNc4cccc5c4C(=O)N(C4CCC(=O)NC4=O)C5=O)CC3)cc2)nc2[nH]cnc12 (centres unmarked) [Compound 30],19.90%,405 nM,27.20%,468 nM,49.10%,17 nM,– (compounds with degradation less than 25% were not calculated and reported as “–”),,,
COc1cc(N2CCC(OCC(=O)NCCNc3cccc4c3C(=O)N(C3CCC(=O)NC3=O)C4=O)CC2)ccc1Nc1nc(Nc2ccccc2S(=O)(=O)C(C)C)c2nc[nH]c2n1 (centres unmarked) [Compound 34],inactive,,inactive,,inactive,,– (compounds with degradation less than 25% were not calculated and reported as “–”),— (compounds with decrease of cell viability less than 50% were not calculated and reported as “—”),– (compounds with degradation less than 25% were not calculated and reported as “–”),– (compounds with degradation less than 25% were not calculated and reported as “–”)
COc1cc(N2CCC(OCC(=O)NCCOCCOCCNc3cccc4c3C(=O)N(C3CCC(=O)NC3=O)C4=O)CC2)ccc1Nc1nc(Nc2ccccc2S(=O)(=O)C(C)C)c2nc[nH]c2n1 (centres unmarked) [Compound 38],inactive,,16.10%,,inactive,,– (compounds with degradation less than 25% were not calculated and reported as “–”),— (compounds with decrease of cell viability less than 50% were not calculated and reported as “—”),– (compounds with degradation less than 25% were not calculated and reported as “–”),– (compounds with degradation less than 25% were not calculated and reported as “–”)

# Continued, in another order:
Dmax (maximal degradation) AURKB [1],EC50 ([2]; read-out: EC50 (concentration that decreases cell viability by 50%)),Dmax (maximal degradation) TTK [3],DC50 ([3]; read-out: DC50 (half-maximal degradation concentration) TTK),Dmax (maximal degradation) AURKA [4],DC50 ([4]; read-out: DC50 (half-maximal degradation concentration) AURKA),SMILES,DC50 (half-maximal degradation concentration) AURKB [1],EC50 (concentration that decreases cell viability by 50%) [2],DC50 (half-maximal degradation concentration) TTK [3],DC50 (half-maximal degradation concentration) AURKA [4]
inactive,,inactive,,inactive,,COc1cc(N2CCC(OCC(=O)NCCCNc3cccc4c3C(=O)N(C3CCC(=O)NC3=O)C4=O)CC2)ccc1Nc1nc(Nc2ccccc2S(=O)(=O)C(C)C)c2nc[nH]c2n1 (centres unmarked) [Compound 35],– (compounds with degradation less than 25% were not calculated and reported as “–”),— (compounds with decrease of cell viability less than 50% were not calculated and reported as “—”),– (compounds with degradation less than 25% were not calculated and reported as “–”),– (compounds with degradation less than 25% were not calculated and reported as “–”)
inactive,,inactive,,inactive,,COc1cc(N2CCC(OCC(=O)NCCCCNc3cccc4c3C(=O)N(C3CCC(=O)NC3=O)C4=O)CC2)ccc1Nc1nc(Nc2ccccc2S(=O)(=O)C(C)C)c2nc[nH]c2n1 (centres unmarked) [Compound 36],– (compounds with degradation less than 25% were not calculated and reported as “–”),— (compounds with decrease of cell viability less than 50% were not calculated and reported as “—”),– (compounds with degradation less than 25% were not calculated and reported as “–”),– (compounds with degradation less than 25% were not calculated and reported as “–”)
